4 molecules from ChEMBL document CHEMBL1833857, “Histone deacetylase activators: N-acetylthioureas serve as highly potent and isozyme selective activators for human histone deacetylase-8 on a fluorescent substrate” (Bioorg Med Chem Lett, 2011) can be followed below.

The term inhibition denotes the change of the read-out against control, counted positive when it falls.

Activity calls are given as the source filed them. The rule behind the calls is not given here.

Data set [1] has as its target T1, Histone deacetylase 8 (Homo sapiens) (UniProt Q9BY41).
T1 sequence (whole entry): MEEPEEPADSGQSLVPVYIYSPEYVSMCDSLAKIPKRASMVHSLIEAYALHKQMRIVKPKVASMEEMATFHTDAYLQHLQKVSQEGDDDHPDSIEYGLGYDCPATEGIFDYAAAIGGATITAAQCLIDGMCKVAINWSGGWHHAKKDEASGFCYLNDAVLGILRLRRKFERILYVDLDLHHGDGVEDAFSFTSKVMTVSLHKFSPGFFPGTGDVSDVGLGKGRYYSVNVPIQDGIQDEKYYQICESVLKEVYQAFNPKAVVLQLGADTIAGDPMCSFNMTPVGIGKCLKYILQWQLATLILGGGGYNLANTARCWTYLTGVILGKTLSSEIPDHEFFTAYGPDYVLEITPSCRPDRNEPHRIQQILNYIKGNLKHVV
In words: Activation of recombinant human HDAC8 assessed as ratio of the initial rate of reaction in the absence and presence of compound using Fluor-de-Lys as substrate at 10 uM by spectrofluorometry.

For data set [2], the target named is T1, Histone deacetylase 8 (Homo sapiens). In words: Activation of recombinant human HDAC8 using Fluor-de-Lys as substrate by spectrofluorometry.
The target is the same in data set [3]. The experiment in a line: Maximum activation of recombinant human HDAC8 using Fluor-de-Lys as substrate by spectrofluorometry relative to control.
Data set [4] shares this target. The experiment in a line: Activation of recombinant human HDAC8 assessed as decrease in Km using Fluor-de-Lys as substrate by spectrofluorometry.
Data set [5] has the same target. In words: Activation of recombinant human HDAC8 assessed as increase in Kcat using Fluor-de-Lys as substrate by spectrofluorometry relative to control.
The target is the same in data set [6]. In words: Activation of recombinant human HDAC8 assessed as increase in ratio of Kcat to Km using Fluor-de-Lys as substrate by spectrofluorometry relative to control.
The target in data set [7] is Histone deacetylase 1 (Homo sapiens) (UniProt Q13547). The experiment in a line: Inhibition of HDAC1 using Fluor-de-Lys as substrate at 100 uM by spectrofluorometry.
Chain of Histone deacetylase 1 (Homo sapiens) (Q13547 whole entry): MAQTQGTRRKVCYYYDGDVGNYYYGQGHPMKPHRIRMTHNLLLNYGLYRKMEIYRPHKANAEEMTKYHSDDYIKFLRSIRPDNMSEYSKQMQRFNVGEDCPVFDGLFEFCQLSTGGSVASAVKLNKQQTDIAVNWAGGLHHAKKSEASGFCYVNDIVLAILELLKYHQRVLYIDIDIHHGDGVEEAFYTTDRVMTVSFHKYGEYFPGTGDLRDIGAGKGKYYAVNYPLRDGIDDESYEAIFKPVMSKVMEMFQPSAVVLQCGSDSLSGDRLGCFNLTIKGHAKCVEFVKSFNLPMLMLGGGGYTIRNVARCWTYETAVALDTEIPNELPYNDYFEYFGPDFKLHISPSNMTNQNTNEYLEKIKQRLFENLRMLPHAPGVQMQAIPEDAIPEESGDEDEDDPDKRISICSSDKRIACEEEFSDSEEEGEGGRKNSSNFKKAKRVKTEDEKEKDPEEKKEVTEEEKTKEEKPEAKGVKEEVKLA
Data set [8] addresses Histone deacetylase 2 (Homo sapiens) (UniProt Q92769). In words: Inhibition of HDAC2 using Fluor-de-Lys as substrate at 100 uM by spectrofluorometry.
Data set [9] has as its target Histone deacetylase 3 (Homo sapiens) (UniProt O15379). In words: Inhibition of HDAC3 using Fluor-de-Lys as substrate at 100 uM by spectrofluorometry.
For data set [10], the target named is Histone deacetylase 4 (Homo sapiens) (UniProt P56524). The experiment in a line: Inhibition of HDAC4 using trifluoroacetyl-lysine containing fluorogenic substrate at 100 uM by spectrofluorometry.
Chain of Histone deacetylase 4 (Homo sapiens) (P56524 whole entry): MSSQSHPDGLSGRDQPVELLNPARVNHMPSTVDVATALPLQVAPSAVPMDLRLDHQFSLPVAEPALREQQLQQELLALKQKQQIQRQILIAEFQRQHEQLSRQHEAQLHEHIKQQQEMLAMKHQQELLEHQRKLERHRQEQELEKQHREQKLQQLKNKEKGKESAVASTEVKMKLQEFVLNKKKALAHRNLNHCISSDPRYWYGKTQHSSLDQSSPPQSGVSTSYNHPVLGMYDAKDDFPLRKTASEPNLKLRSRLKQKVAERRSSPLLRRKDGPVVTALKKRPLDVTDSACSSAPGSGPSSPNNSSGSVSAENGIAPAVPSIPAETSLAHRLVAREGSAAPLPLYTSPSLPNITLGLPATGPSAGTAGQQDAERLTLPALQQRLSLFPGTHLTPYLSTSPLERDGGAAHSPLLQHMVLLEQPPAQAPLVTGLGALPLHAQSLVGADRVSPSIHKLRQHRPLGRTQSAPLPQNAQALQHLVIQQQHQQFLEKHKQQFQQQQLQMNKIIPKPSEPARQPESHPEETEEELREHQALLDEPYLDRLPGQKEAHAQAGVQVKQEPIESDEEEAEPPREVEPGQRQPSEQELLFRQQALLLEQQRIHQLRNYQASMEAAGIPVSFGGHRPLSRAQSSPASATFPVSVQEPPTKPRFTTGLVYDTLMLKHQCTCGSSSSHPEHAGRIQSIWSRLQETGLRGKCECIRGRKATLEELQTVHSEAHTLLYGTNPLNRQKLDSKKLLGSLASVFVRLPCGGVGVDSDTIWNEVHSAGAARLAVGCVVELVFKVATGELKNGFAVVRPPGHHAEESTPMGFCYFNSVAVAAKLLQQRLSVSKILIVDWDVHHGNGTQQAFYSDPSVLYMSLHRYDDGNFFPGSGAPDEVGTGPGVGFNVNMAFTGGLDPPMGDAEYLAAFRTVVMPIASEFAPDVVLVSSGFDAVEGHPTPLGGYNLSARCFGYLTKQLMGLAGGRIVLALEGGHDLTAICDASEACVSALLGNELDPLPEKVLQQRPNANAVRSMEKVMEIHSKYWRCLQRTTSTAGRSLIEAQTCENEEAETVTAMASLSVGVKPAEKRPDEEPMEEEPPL
Data set [11] addresses T2, Protein deacetylase HDAC6 (Homo sapiens) (UniProt Q9UBN7).
T2 sequence (whole entry): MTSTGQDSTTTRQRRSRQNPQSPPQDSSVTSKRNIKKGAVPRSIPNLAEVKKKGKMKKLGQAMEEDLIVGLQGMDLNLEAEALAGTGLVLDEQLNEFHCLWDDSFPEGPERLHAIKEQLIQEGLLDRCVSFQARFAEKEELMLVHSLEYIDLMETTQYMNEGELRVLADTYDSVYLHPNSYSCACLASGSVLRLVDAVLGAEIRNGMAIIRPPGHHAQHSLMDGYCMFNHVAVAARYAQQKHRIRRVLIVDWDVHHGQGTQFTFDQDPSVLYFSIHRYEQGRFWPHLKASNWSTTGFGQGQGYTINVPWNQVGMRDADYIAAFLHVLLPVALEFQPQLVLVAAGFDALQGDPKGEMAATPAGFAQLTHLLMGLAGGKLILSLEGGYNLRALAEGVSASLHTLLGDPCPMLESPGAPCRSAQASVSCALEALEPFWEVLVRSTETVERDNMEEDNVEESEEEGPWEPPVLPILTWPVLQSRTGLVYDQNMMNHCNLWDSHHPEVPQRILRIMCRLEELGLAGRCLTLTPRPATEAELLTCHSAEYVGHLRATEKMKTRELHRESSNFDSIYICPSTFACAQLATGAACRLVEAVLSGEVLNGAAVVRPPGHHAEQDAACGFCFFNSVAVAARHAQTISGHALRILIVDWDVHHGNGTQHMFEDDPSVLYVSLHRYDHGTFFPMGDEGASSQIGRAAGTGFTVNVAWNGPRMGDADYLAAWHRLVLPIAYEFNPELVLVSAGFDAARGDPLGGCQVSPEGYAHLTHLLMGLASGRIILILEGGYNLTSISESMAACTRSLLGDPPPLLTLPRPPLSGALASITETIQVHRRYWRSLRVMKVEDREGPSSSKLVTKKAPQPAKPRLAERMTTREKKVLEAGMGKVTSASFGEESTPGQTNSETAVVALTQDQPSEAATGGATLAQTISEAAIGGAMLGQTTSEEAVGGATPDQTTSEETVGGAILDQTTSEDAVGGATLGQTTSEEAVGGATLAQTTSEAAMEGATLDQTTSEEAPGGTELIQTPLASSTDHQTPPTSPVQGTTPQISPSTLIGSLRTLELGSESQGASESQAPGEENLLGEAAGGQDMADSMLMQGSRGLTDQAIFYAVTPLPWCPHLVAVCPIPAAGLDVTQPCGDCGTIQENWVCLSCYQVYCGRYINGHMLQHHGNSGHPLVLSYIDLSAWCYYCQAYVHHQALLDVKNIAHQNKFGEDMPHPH
The experiment in a line: Inhibition of HDAC6 using Fluor-de-Lys as substrate at 100 uM by spectrofluorometry.

Data set [12] addresses T3, Polyamine deacetylase HDAC10 (Homo sapiens) (UniProt Q969S8).
T3 sequence (whole entry): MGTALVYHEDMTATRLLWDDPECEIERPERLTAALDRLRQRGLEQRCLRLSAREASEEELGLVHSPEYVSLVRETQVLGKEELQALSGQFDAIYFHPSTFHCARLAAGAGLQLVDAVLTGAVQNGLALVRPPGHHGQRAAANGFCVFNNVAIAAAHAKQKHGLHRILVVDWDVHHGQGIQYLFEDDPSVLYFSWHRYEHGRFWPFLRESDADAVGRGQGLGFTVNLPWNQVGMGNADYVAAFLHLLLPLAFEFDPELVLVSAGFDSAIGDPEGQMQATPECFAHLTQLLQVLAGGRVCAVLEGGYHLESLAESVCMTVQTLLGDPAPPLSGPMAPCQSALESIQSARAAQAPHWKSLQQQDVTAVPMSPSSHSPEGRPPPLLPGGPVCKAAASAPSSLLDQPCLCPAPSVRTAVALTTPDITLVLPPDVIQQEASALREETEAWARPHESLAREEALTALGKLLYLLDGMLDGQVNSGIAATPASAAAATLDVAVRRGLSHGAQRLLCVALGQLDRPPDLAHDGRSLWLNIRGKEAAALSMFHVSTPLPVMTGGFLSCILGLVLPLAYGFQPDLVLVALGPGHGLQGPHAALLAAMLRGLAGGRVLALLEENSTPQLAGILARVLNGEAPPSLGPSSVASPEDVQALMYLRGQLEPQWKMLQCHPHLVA
In words: Inhibition of HDAC10 using Fluor-de-Lys as substrate at 100 uM by spectrofluorometry.

For data set [13], the target named is T4, Histone deacetylase 11 (Homo sapiens) (UniProt Q96DB2).
T4 sequence (whole entry): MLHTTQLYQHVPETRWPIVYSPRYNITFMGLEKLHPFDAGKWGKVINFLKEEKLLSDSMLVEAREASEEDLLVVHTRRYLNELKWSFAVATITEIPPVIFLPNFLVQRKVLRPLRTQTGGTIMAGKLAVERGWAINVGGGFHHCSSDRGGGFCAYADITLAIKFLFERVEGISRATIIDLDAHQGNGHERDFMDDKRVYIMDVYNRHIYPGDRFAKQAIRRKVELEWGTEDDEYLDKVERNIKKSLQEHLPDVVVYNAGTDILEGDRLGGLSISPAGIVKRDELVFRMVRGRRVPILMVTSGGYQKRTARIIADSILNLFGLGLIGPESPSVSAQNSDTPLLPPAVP
In words: Inhibition of HDAC11 using Fluor-de-Lys as substrate at 100 uM by spectrofluorometry.

The target of data set [14] is Histone deacetylase 4 (Homo sapiens) (UniProt P56524). The experiment in a line: Activation of HDAC4 using trifluoroacetyl-lysine containing fluorogenic substrate at 100 uM by spectrofluorometry.
The target is the same in data set [15]. The experiment in a line: Activation of HDAC4 using trifluoroacetyl-lysine containing fluorogenic substrate at 10 uM by spectrofluorometry.
The target of data set [16] is Histone deacetylase 2 (Homo sapiens) (UniProt Q92769). In words: Activation of HDAC2 using Fluor-de-Lys as substrate at 100 uM by spectrofluorometry.
Chain of Histone deacetylase 2 (Homo sapiens) (Q92769 whole entry): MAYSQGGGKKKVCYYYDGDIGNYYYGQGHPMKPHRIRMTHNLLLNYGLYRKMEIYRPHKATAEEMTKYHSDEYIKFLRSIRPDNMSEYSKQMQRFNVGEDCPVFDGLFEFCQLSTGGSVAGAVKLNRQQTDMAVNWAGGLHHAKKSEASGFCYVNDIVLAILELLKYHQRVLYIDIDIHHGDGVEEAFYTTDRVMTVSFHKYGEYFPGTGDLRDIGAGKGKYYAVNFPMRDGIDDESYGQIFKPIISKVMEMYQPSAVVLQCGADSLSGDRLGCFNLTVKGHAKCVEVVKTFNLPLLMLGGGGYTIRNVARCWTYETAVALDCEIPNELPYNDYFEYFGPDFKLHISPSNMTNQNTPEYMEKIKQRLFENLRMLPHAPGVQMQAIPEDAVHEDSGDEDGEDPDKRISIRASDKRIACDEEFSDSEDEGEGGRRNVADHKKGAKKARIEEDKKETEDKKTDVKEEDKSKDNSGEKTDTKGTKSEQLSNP
The target of data set [17] is Histone deacetylase 3 (Homo sapiens) (UniProt O15379). In words: Activation of HDAC3 using Fluor-de-Lys as substrate at 100 uM by spectrofluorometry.
Chain of Histone deacetylase 3 (Homo sapiens) (O15379 whole entry): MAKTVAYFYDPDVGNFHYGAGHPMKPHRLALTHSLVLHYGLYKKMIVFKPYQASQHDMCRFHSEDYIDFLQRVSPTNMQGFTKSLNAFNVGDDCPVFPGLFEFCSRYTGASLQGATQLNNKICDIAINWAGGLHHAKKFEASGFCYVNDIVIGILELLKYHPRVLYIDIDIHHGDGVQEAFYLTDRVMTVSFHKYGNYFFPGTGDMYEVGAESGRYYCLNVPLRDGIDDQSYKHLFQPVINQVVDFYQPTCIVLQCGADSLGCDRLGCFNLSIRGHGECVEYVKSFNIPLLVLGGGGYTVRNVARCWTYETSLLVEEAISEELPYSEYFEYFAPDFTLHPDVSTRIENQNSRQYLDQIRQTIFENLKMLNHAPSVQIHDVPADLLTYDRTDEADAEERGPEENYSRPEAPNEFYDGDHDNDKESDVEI
Data set [18] addresses T2, Protein deacetylase HDAC6 (Homo sapiens). In words: Activation of HDAC6 using Fluor-de-Lys as substrate at 100 uM by spectrofluorometry.
The target of data set [19] is T3, Polyamine deacetylase HDAC10 (Homo sapiens). The experiment in a line: Activation of HDAC10 using Fluor-de-Lys as substrate at 100 uM by spectrofluorometry.
For data set [20], the target named is T4, Histone deacetylase 11 (Homo sapiens). In words: Activation of HDAC11 using Fluor-de-Lys as substrate at 100 uM by spectrofluorometry.
For data set [21], the target named is Histone deacetylase 2 (Homo sapiens) (UniProt Q92769). The experiment in a line: Activation of HDAC2 using Fluor-de-Lys as substrate at 10 uM by spectrofluorometry.
The target of data set [22] is Histone deacetylase 3 (Homo sapiens) (UniProt O15379). In words: Activation of HDAC3 using Fluor-de-Lys as substrate at 10 uM by spectrofluorometry.
Data set [23] concerns the target T2, Protein deacetylase HDAC6 (Homo sapiens). In words: Activation of HDAC6 using Fluor-de-Lys as substrate at 10 uM by spectrofluorometry.
Data set [24] deals with T3, Polyamine deacetylase HDAC10 (Homo sapiens). The experiment in a line: Activation of HDAC10 using Fluor-de-Lys as substrate at 10 uM by spectrofluorometry.
In data set [25] the target is T4, Histone deacetylase 11 (Homo sapiens). The experiment in a line: Activation of HDAC11 using Fluor-de-Lys as substrate at 10 uM by spectrofluorometry.
Data set [26] is described as follows: Solubility of the compound at 100 uM. Format: physicochemical.

For the molecule `O=C(NC(=S)Nc1ccccc1)c1ccccc1`, the fold change (FC) is 12 in data set [1]; 26.8 in data set [3]; 3 in data set [4]; 5 in [5]; 16 in data set [6]. Moreover, the Ka in [2] came to 12.4 µM. Besides, the inhibition in [7] is 8%; in data set [8], 8%; in data set [9] it was 6%; in data set [11], 30%; in [12] it was 15%; in [13], 14%. In addition, in [10], the inhibition result was “inactive”. Also, the outcome in [14] and in data set [15] was inactive.

Regarding `O=C(NC(=S)NC1CCCCC1)c1ccccc1`, in data set [1], the fold change (FC) was 5.6. This molecule also had an inhibition in data set [7] of 5%. For the same molecule, the inhibition result in [8], in [9], in data set [10], in data set [11], in data set [12] and in data set [13] was “inactive” in each case. For the same molecule, the outcome in data set [16], in [17], in data set [14], in data set [18], in data set [19] and in [20] was inactive. Further, the outcome in [21], in data set [22], in data set [15], in data set [23], in data set [24] and in data set [25] was inactive.

`Cc1cc(=O)oc2cc(NC(=S)NC(=O)c3ccccc3)ccc12`: the fold change (FC) in data set [1] was 2. Further, the outcome in data set [14] and in data set [15] was inactive. In data set [26], the solubility entry is “Insoluble”.

As to `O=C(NC(=S)Nc1ccccc1)c1ccccc1F`, in [1], the fold change (FC) came out at 3.5. Besides, the inhibition in data set [7] was determined as 5%. Further, the inhibition entry in data set [8], in data set [9], in [10], in data set [11], in data set [12] and in data set [13] was “inactive” throughout. The result in [16], in data set [17], in data set [14], in data set [18], in data set [19] and in data set [20] was inactive. Also, the outcome in data set [21], in data set [22], in [15], in data set [23], in [24] and in [25] was inactive.
